# Key:
# [1] = tissue CO distribution in CD-1 female mice; format: in vivo; details: for CO levels in the liver compared with blood, kidney, heart and lung tissues (in words): 50 mg/kg i.v., CD-1 female mice
# From the text: Carbon monoxide-releasing molecules (CO-RMs) are carriers of carbon monoxide (CO) and can release CO in vivo. CO can bind to hemoglobin in the blood and to various heme proteins in cells. Vreman et al. Anal Biochem 341:280-289 describes a method to release CO bound to tissues into the gas phase, and quantify it using GC-RCP chromatography. We applied this methodology to assay CO in various tissues of mice treated with CO-RMs (see Example 2, herein). However, since the CO release method of Vreman (in vitro incubation with sulfosalicylic acid) also releases CO from the CO-RM, the CO released from tissue samples represents CO bound to tissue proteins and CO from CO-RM compound accumulated in tissue. For CO-RM compounds with slow CO release rates in vivo, the CO measured at the earliest sampling point (5 min after CO-RM administration) may therefore mostly be a measure for the tissue distribution of the intact CO-RM.
# The compound was dissolved in PBS and the acids neutralized with 3 eq. NaOH (from a NaOH stock solution 2.5M). The pH was brought down to about 7.5 by adding HCl (from a stock solution 1 M). The compound was then administered i.v. (50 mg/kg in 150 μL) to two CD-1 female mice (Charles River). The mice were warmed for ten minutes under an infrared lamp to facilitate the i.v. administration into a tail vein. Five and twenty minutes after the dosing, the two mice were anesthetized with IsoFluorane, and the blood was collected from the retro-orbital plexus using a Pasteur pipette containing ˜20 μL of heparin solution. The animal was opened; the portal vein was cut and the organs were perfused by injecting 10-15 mL of cold PBS in the left ventricle of the heart. Then the heart, kidneys, liver and lung were collected, briefly washed with potassium phosphate buffer, dried with a paper towel and snap frozen in liquid nitrogen. Samples of the freshly collected blood were transferred to AVOXimeter 4000 cuvettes (ITC) to measure the levels of carboxyhemoglobin (COHb), oxyhemoglobin (O2Hb) and methemoglobin (MetHb) using a portable AVOXimeter 4000 CO-oximeter. The results are shown as mean percentage of total hemoglobin species in circulation. The organs and blood were conserved at −20° C. until the CO quantization was done.
# For CO quantization, the protocol described by Vreman et al was followed. The organs were cut into small pieces, which were weighed and 4 volumes of water (a volume corresponding to four times the weight of the tissue sample) were added to each organ sample. The tissues were homogenized using a tissue tearer. Aliquots of homogenate ([…]) were placed into vials to which were added water ([…]) and sulfosalicylic acid (SSA, 5 μL, 30% [wt/vol]) immediately before they were closed with a gas-tight septum cap. The vials were incubated on ice for at least 20 min before being analyzed by GC-RCP (in later experiments, the incubation time was extended to 45 minutes). The amount of CO was calculated using a calibration curve prepared from CO standards. […] COHb was determined using an oximeter (AVOXimeter 4000, USA).
# Table 6 provides the CO distribution in blood, heart, liver, lung and kidney following Compound 3b administration at 50 mg/kg by […]. CO was assayed by GC-RCP, 5 and 20 minutes after administration of the compound. The CO concentration in the several organs is normalized to the amount of CO quantified in the blood (CO concentration as fraction of concentration in blood 50 mg/kg Compound 3b injected i.v. at t=0; CO assayed in tissues by GC at t=5 min and t=20 min).
# [2] = in vitro metabolism study: decay on incubation with liver microsomes; format: in vitro ADME; details: one hour / 60 minutes incubation
# Procedure: Sixty percent decay could release up to 1.8 molar equivalents of CO. […] Therefore liver microsomes accelerate the decomposition of the compound. […] Microsomes were incubated with Compound 1b using closed vials to enable quantitative measurement of the released CO. As a control, Compound 1b was incubated under similar conditions in the absence of microsomes.
# In an in vitro metabolism study of the CO release kinetics of Compound 3b, it was determined that 80% of Compound 3b decayed in 60 minutes incubation with liver microsomes. In order to investigate if this accelerated decomposition of Compound 3b in the presence of microsomes was inducing a faster CO release from the compound, the CO release profile of Compound 3b in the presence of liver microsomes was determined. Microsomes were incubated with Compound 3b using closed vials to enable quantitative measurement of the released CO. As a control, Compound 3b was incubated under similar conditions in the absence of microsomes. […] The initial rate of CO release is 0.0297 CO equivalents (297.22 pmol) per minute in the presence of microsomes and 0.0072 CO equivalents (72.265 pmol) per minute in the absence of microsomes.
# [3] = CO released from Compound 3b in phosphate buffer pH 7.4 alone or with human or rat microsomes (FIG. 8); format: in vitro ADME; details: 37° C.
# Procedure: The vials were closed and after mixing, the samples were warmed to 37° C. for 5 minutes before an aliquot (25 μL, 0.5 mg protein content) of rat liver microsomes (BD, Cat. No. 452511) or human liver microsomes (BD, Cat. No. 452161) was added to each vial. In parallel analogous vials with all the reagents except the microsomes were prepared. Due to the light-sensitivity of the molybdenum compounds, the reactions were performed in the dark. The samples were incubated at 37° C. and gas samples of the headspace (from 100 μL to 500 μL) of the vials were removed with a gas-tight syringe after 5, 10, 15, 30, and 60 minutes (in some cases samples were also taken at 1, 2, 3 or 4 minutes) upon microsomes addition. The gas samples were then injected into empty sealed vials (8 mL volume) and the amount of CO present in the vials was measured using GC-RCP.
# FIG. 8 depicts the amount of CO released from Compound 3b, expressed in equivalents of CO, in phosphate buffer pH 7.4 (“buffer”), phosphate buffer pH 7.4 in the presence of human microsomes (“human”) or rat microsomes (“rat”). The assay was performed in closed vials during 1 hour at 37° C. A gas aliquot was removed from the air space of the vials and CO concentration was determined by GC-RCP at different time points.
# [4] = storage stability of the solid; format: physicochemical; details: brown vials, ambient temperature, under N2
# From the text: Following the procedure described by Beck and coworkers (Achatz et al., Anorg. Allg. Chem (2005) 631:2339-2346) saponification of compound (3-a) or (3-c) with NaOH followed by protonation with an acid (e.g., HCl or H2SO4) in aqueous solution led to the formation of tricarbonyl[tris(2-isocyano-2-methyl-propionic acid)]Mo(0) (3-b). Compound (3-b) is stable when stored in brown vials at ambient temperature under N2 for over 6 months or more.
# [5] = preliminary safety studies in mice; format: in vivo; details: doses up to 1 g/kg
Molecule,"CO levels in the liver compared with blood, kidney, heart and lung tissues (in words) [1]",compound decayed on incubation with liver microsomes [2],"factor by which microsomes accelerate CO release ([3]; human or rat microsomes versus buffer, 1 hour)","CO released in pH 7.4 buffer in 1 hour ([3]; phosphate buffer pH 7.4, no microsomes)","CO concentration as fraction of concentration in blood: Blood, 5 min ([1]; 50 mg/kg, blood, t=5 min)","CO concentration as fraction of concentration in blood: Blood, 20 min ([1]; 50 mg/kg, blood, t=20 min)","CO concentration as fraction of concentration in blood: Heart, 5 min ([1]; 50 mg/kg, heart, t=5 min)","CO concentration as fraction of concentration in blood: Heart, 20 min ([1]; 50 mg/kg, heart, t=20 min)","CO concentration as fraction of concentration in blood: Kidney, 5 min ([1]; 50 mg/kg, kidney, t=5 min)","CO concentration as fraction of concentration in blood: Kidney, 20 min ([1]; 50 mg/kg, kidney, t=20 min)","CO concentration as fraction of concentration in blood: Liver, 5 min ([1]; 50 mg/kg, liver, t=5 min)","CO concentration as fraction of concentration in blood: Liver, 20 min ([1]; 50 mg/kg, liver, t=20 min)","CO concentration as fraction of concentration in blood: Lung, 5 min ([1]; 50 mg/kg, lung, t=5 min)","CO concentration as fraction of concentration in blood: Lung, 20 min ([1]; 50 mg/kg, lung, t=20 min)",CO concentration in the liver relative to blood ([1]; five minutes after i.v. injection),stable when stored [4],toxicity in preliminary safety studies [5]
"CC([N+]#[C][Mo-6]([C]#[O+])([C]#[O+])([C]#[O+])([C]#[N+]C(C)C(=O)O)[C]#[N+]C(C)C(=O)O)C(=O)O (centres unmarked) [Compound 2b, tricarbonyl[tris(2-isocyanopropionic acid)]Mo(0)]",increased CO levels in the liver,,,,,,,,,,,,,,,,
tricarbonyl[tris(isocyanoacetic acid)]Mo(0) [Compound 1b],no preferential accumulation of CO in the liver,60%,,,,,,,,,,,,,,,
"[C-]#[N+]C(C)(C)C(=O)O.[C-]#[N+]C(C)(C)C(=O)O.[C-]#[N+]C(C)(C)C(=O)O.[C-]#[O+].[C-]#[O+].[C-]#[O+].[Mo] [Compound 3b, tricarbonyl[tris(2-isocyano-2-methyl-propionic acid)]Mo(0)]",increased CO levels in the liver,80%,4.0-5.5,0.25 mol equiv. of CO,1,1,0.046 ± 0.012,0.072 ± 0.055,0.419 ± 0.295,0.074 ± 0.028,5.26 ± 3.18,0.163 ± 0.062,0.049 ± 0.020,0.060 ± 0.046,five times higher in the liver than in blood,over 6 months,no toxicity

# Source: US9163044B2, “Carbon monoxide releasing molecules and uses thereof” (Alfama, Inc., priority 2011, dated 2015)
